In US5332812A, “Solid-phase substrate containing modified heparin” (Board of Regents, The University of Texas System, priority 1991, dated 1994):
“Also recorded” adds a separate entry of the source.

Experiments:
B16 melanoma heparanase [1] = conditions: labeled glycosaminoglycans, with or without D-saccharic acid 1,4-lactone; cited from earlier work
B16 melanoma heparanase [2] = test: Enzymatic degradation of 3H-labeled glycosaminoglycans by B16 melanoma cell extract, analysed by high-speed gel permeation chromatography; type: biochemical, mouse; conditions: for Degradation (heparanase susceptibility): 3H-labeled glycosaminoglycan, cell extract 80 ug protein, pH 6.0, 6 hr at 37 C, 20 mM SAL, decrease in area of high Mr half of peak; for Percentage degradation of the original substrate: first 6 h incubation with B16 cell extract; for Cleavage by melanoma heparanase (in words): B16 melanoma cell extracts in presence of SAL, FIG. 2
Excerpt: The abilities of B16 cells to degrade HS from various origins and other purified glycosaminoglycans (heparin, chondroitin 4-sulfate, chondroitin 6-sulfate, dermatan sulfate, keratan sulfate, and hyaluronic acid) has been studied. […] HS metabolically labeled with [^35 S] sulfate was purified from basement membrane producing EHS sarcoma and PYS-2 carcinoma cells, and subendothelial matrices of bovine aortic endothelial (BAE) and corneal endothelial (BCE) cells (ibid). HS molecules purified from bovine lung and other glycosaminoglycans were labeled with tritium at their reducing termini using NaB[^3 H]4. […] In order to determine specific HS cleavage points, the newly formed reducing termini of HS fragments were investigated by: labeling with NaB[^3 H]4; hydrolysis to monosaccharides; and analysis of these saccharides by paper chromatography.
High-speed gel permeation chromatography. […] A one hundred microliter aliquot of sample solution was delivered into the injection port, and the chromatographic elution was performed with 0.2M sodium chloride at a flow rate of 1.0 ml/min at 55° C. […] In the analysis of radiolabeled materials, fractions corresponding to each 36 s of elution (0.6 ml) were collected and mixed with 3.0 ml of Liquiscint (National Diagnostics, Comerville, N.J.), and counted on a Beckman LS 2800 liquid scintillation counter (Beckman Instruments, Irvine, Calif.).
Enzymatic degradation of unmodified and modified HS. […] The incubation was carried out at 37° C. with gentle mixing, and was terminated by chilling the mixture to 4° C. and adding 20 ul of trichloroacetic acid to a final concentration of 5%. The supernatant was obtained by centrifugation at 9800×g for 5 min and it was subjected to analysis by high-speed gel permeation chromatography.
The effect of N-desulfation and N-acetylation of HS on its susceptibility to melanoma heparanase was assessed using HS labeled with tritium at the reducing terminal saccharide. […] HS labeled with tritium at the reducing end was N-desulfated by solvolysis with DMSO, and N-desulfated [^3 H]HS was then N-acetylated with acetic anhydride. These three ^3 H-labeled, chemically modified HS molecules were analyzed by cellulose acetate electrophoresis in 0.5M pyridine-acetate buffer, pH 5.0.
N-Desulfated and N-acetylated heparin.

[3] = tested on: human melanoma heparanase; test: Degradation by heparanase obtained from a human melanoma cell line; type: biochemical
B16 melanoma heparanase [4] = conditions: cited from earlier work
[5] = tested on: human melanoma heparanase; test: Inhibition of human melanoma heparanase; type: biochemical
Excerpt: Properties of human melanoma heparanase.

Substance	Degradation by B16 cell extracts (earlier publications) (B16 melanoma heparanase [1])	Degradation (heparanase susceptibility) (B16 melanoma heparanase [2])	further results
chondroitin 4-sulfate	essentially undegraded		
dermatan sulfate	essentially undegraded		
hyaluronic acid	essentially undegraded		
Carboxyl reduced heparin		- (less than 5%)	
chondroitin 6-sulfate	essentially undegraded		
N,O-Desulfated and N-acetylated HS		+ (more than 80%)	
N-desulfated N-acetylated heparin [N-Desulfated and N-acetylated heparin]		± (5% to 15%)	Percentage degradation of the original substrate (B16 melanoma heparanase [2]): approximately 20%; Further cleavage after prolonged incubation (B16 melanoma heparanase [2]; prolonged incubation with B16 cell extract): not further cleaved; Degradation by human melanoma heparanase (in words) [3]: only partially degrade
N-desulfated heparan sulfate [N-Desulfated HS]		+ (more than 80%)	Cleavage by melanoma heparanase (in words) (B16 melanoma heparanase [2]): cleaved by melanoma heparanase at high rates; Degradation by human melanoma heparanase (in words) [3]: efficiently cleave
Heparin	essentially undegraded; also recorded: inactive	- (less than 5%)	Percentage degradation of the original substrate (B16 melanoma heparanase [2]): less than 5%; Inhibition of HS degradation / B16 melanoma heparanase (earlier publications) (B16 melanoma heparanase [4]): inhibited HS degradation; also recorded: potent inhibitor; Inhibition of melanoma heparanase (in words) [5]: potent inhibitors
N,O-Desulfated HS		+ (more than 80%)	
keratan sulfate	essentially undegraded		
N,O-Desulfated heparin		- (less than 5%)	
N-Desulfated and N-methylated heparin		- (less than 5%)	
N,O-Desulfated and N-acetylated heparin		± (5% to 15%)	
dextransulfate			Inhibition of melanoma heparanase (in words) [5]: potent inhibitors
N-Desulfated heparin		- (less than 5%)	
N-desulfated N-acetylated heparan sulfate [N-Desulfated and N-acetylated HS]		+ (more than 80%)	Cleavage by melanoma heparanase (in words) (B16 melanoma heparanase [2]): cleaved by melanoma heparanase at high rates; Degradation by human melanoma heparanase (in words) [3]: efficiently cleave
Heparan sulfate [Heparan sulfate (HS)]	degraded into fragments of characteristic molecular weight	+ (more than 80%)	Cleavage by melanoma heparanase (in words) (B16 melanoma heparanase [2]): cleaved by melanoma heparanase at high rates; Degradation by human melanoma heparanase (in words) [3]: degrades heparan sulfate
